Measured values published in patent EP0212605A2, “Azolyl-cyclopropyl-ethanol derivatives, processes for their preparation and their use” (HOECHST AKTIENGESELLSCHAFT, priority 1985, dated 1987).

System: Candida albicans
Assay: Oral and parenteral in vivo efficacy in mice experimentally infected with Candida albicans (survival time)
Design: species or system Mäusen (Stamm HOE: NMRKF; SPF 71)
Details: for d̄ Tage: mean survival time of 5 mice; for Überlebenszeit in % (Standardpräp.= 100%): relative to Ketoconazol = 100%
Experimental: Zur Feststellung der oralen und parenteralen Wirksamkeit wurden Gruppen von je 5 18-20 g schweren Mäusen (Stamm HOE: NMRKF; SPF 71) mit 2 . 10^6 Keimen/Tier infiziert.
Die Behandlung der Tiere erfolgte oral bzw. subcutan in 8 gleichen Einzeldosen zu je 30 mg/kg bzw. 10 mg/kg Körpergewicht (-24/-18/-2h/+2/24/30/48/54h).
Neben der mit den erfindungsgemäßen Substanzen I behandelten Gruppe von 5 Tieren wurde zum Vergleich eine Gruppe von ebenfalls 5 Tieren mit der Referenzsubstanz Ketoconazol behandelt. Eine kontrollgruppe von 10 Tieren blieb nach der Infektion unbehandelt.

| Structure (SMILES) | d̄ Tage (Oral 8x10 mg/kg) | Überlebenszeit in % (Standardpräp.= 100%) (Oral 8x10 mg/kg) | d̄ Tage (Oral 8x30 mg/kg) | Überlebenszeit in % (Standardpräp.= 100%) (Oral 8x30 mg/kg) | d̄ Tage (Subcutan 8x10 mg/kg) | Überlebenszeit in % (Standardpräp.= 100%) (Subcutan 8x10 mg/kg) | d̄ Tage (Subcutan 8x30 mg/kg) | Überlebenszeit in % (Standardpräp.= 100%) (Subcutan 8x30 mg/kg) |
| --- | --- | --- | --- | --- | --- | --- | --- | --- |
| OC(Cn1cncn1)(c1ccc(Cl)cc1Cl)C1CC1c1ccc(Cl)cc1 (single isomer, unassigned) [29 a] | 6,8 Tage | 121,4% | 9,8 Tage | 122,5% | 7,2 Tage | 112,5% | 11,4 Tage | 142,5% |
| CC(=O)N1CCN(c2ccc(OCC3COC(Cn4ccnc4)(c4ccc(Cl)cc4Cl)O3)cc2)CC1 (centres unmarked) [Ketoconazol, reference compound] | 5,6 Tage | 100,0% | 8,0 Tage | 100,0% | 6,4 Tage | 100,0% | 8,0 Tage | 100,0% |
| OC(Cn1cncn1)(c1ccc(Cl)cc1)C1CC1c1ccc(Cl)cc1 (single isomer, unassigned) [34 b] | 11,6 Tage | 207,1% | 13,0 Tage | 162,5% | 11,0 Tage | 171,9% | 8,0 Tage | 100,0% |
| OC(Cn1cncn1)(c1ccc(F)cc1)C1CC1c1ccc(Cl)cc1Cl (single isomer, unassigned) [27 b] | 9,2 Tage | 164,3% | 11,6 Tage | 145,0% | 10,4 Tage | 162,5% | 12,6 Tage | 157,5% |
